According to PMC9434784, “Synthesis and In Vitro Evaluation of a Set of 6-Deoxy-6-thio-carboranyl D-Glucoconjugates Shed Light on the Substrate Specificity of the GLUT1 Transporter” (ACS Omega, 2022):
pIC50: −log10 of the molar value. Read-outs that look alike come from different tables or passages of the source.

Experiments:
[1] = system: CAL 27 cell line; test: Cellular uptake (boron delivery capacity) by ICP-MS boron quantification; type: cell-based, human; settings: for behaviour at GLUT1 inferred from affinity and uptake profiles: CAL 27; for Vmax (boron uptake, Michaelis–Menten) / Km: 10–400 μM; for Km: read-out: Km (boron uptake, Michaelis–Menten)
Description: The uptake studies were performed according to our recently reported protocol.[13],[14] […] This, however, is not a concern, as the cell-killing effect caused by the thermal neutron beam in actual BNCT treatments has a destructive radius reminiscent to the diameter of a single cell (5–9 μm in biological tissue).[46] In the uptake studies, the concentration range 10–400 μM was screened. The incubation times 5, 30, and 120 min were chosen due the optimal performance of [^14C]-D-glucose under these conditions. Since inductively-coupled plasma mass spectrometry (ICP-MS) is somewhat insensitive when it comes to quantification of the boron content, thoroughly washed cells from four wells were combined and digested before being subjected to the analysis. […] However, we noticed that the Km values were consistently higher with the S-linked carboranyl species compared to the O-linked carboranylmethyl species.[14] The higher Km value may imply that there are additional transport mechanisms involved in the uptake of the S-series delivery agents. More work is needed to ascertain these factors. Regardless, the different Km values may likewise indicate that a greater concentration, which may no longer be clinically relevant, would be required for the S-series species to reach Vmax.
The cells were first pre-incubated. The substrates were then added in different concentration (10–400 μM in 250 μL of HBSS) and incubation was continued for 5, 30, and 120 min at room temperature. Ice-cold buffer was used to quench the reaction at the set time points. Washing and lysis was carried out as mentioned above. A combined sample was prepared in an Eppendorf tube by addition of cell lysate from four wells. The combined sample was centrifuged at +4 °C. From the supernatant of every sample, 800 μL was taken and digested in 1.0 mL of HNO3 (TraceMetal grade, Fisher Chemical) for 24 h. Milli-Q water (USF Elga Purelab Ultra) was added until the sample volume was 10 mL, and the boron contents were assessed in triplicates by ICP-MS. More details on the ICP method can be found in our earlier work.[13],[14] PerkinElmer Syngistix Data Analysis Software was used for data analysis and GraphPad Prism v.5.03 software (GraphPad Software, San Diego, Ca, USA) for statistical analysis.

[2] = target: T1, GLUT1 (Homo sapiens, UniProt P11166); test: GLUT1 affinity cis-inhibition assay against [14C]-D-glucose in CAL 27 cells; type: cell-based; settings: competition with 1.8 μM [14C]-D-glucose, 5 min, room temperature, 0.1–1800 μM
T1 construct: host or cells: CAL 27 human squamous carcinoma cells
T1 sequence (P11166 1-492): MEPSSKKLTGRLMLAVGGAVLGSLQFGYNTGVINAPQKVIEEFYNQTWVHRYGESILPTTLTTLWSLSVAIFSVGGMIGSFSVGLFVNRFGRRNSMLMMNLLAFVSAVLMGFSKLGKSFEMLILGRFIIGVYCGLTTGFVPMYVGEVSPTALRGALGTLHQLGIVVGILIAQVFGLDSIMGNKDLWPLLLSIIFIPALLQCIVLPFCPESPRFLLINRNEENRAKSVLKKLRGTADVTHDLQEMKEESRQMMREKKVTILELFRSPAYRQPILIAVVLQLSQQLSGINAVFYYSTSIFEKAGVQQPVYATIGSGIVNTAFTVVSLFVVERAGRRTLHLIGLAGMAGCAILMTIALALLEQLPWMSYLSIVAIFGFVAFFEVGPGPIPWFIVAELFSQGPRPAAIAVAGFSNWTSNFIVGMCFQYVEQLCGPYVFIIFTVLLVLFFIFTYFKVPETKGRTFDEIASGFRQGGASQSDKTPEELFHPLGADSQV
Source text: From the drug development perspective, it is central to understand the molecular interactions between the ligand and the transporter. For example, in a BNCT context, the selectivity and success of the treatments are directly related to the preferential uptake of boron-10 enriched delivery agents by cancer cells. In our case, the GLUT1 transporter, which is overexpressed on various cancers, is responsible for the uptake process. The clinical validity and therapeutic utility of the approach stem from the “Warburg effect”.[7],[8] Cancer cells have an impaired D-glucose metabolism while simultaneously displaying a high proliferation rate and energy demand. Together, these factors contribute to an increased D-glucose uptake in cancer cells compared to healthy cells and offer a basis for pursuing a GLUT1-targeting strategy in BNCT. Based on the available tumor imaging data obtained through the use of FDG,[38] head and neck cancers represent a promising target for our approach. Therefore, we employed the human squamous carcinoma cell line CAL 27 as a suitable model for the in vitro assessment of GLUT1-targeting delivery agents. In addition to being a relevant head and neck cancer cell line of human origin, the GLUT1-transporter has been indicated to play a key role in the aberrant growth of CAL 27 cells.[39],[40] In our previous work, we validated the GLUT1-function, quantified the GLUT1-expression, and developed a cis-inhibition assay for determining the relative affinities of GLUT1-targeting delivery agents to GLUT1 in the CAL 27 cell line.[13],[14] To allow comparison of the results of the present study to our earlier ones, we used the same protocols herein. The fully deprotected glucoconjugates 1–4 were subjected to the cis-inhibition assay, i.e., they were forced to compete for the transporter against radiolabeled [^14C]-D-glucose in order to assess their targeting capabilities from a functional point of view. A high GLUT1 affinity, i.e., a low IC50 value, is characteristic of delivery agents that are able to target the transporter in the presence of the natural substrate D-glucose in a biological milieu. […] Large differences in the IC50 values were thus noted. […] These two delivery agents display acceptable GLUT1-targeting capabilities. […] While the trend is clear, the results are surprising. The question that arises is as follows: which underlying factors contribute to these notable deviations uncovered through the experimental cis-inhibition assay?
The GLUT1 affinity assay was performed according to our previously developed protocol.[13],[14] […] Liquid scintillation counter (MicroBeta^2 counter, PerkinElmer, Waltham, MA, USA) was used to assess the radioactivity, and the IC50 values were determined by nonlinear regression analysis.

Compound | behaviour at GLUT1 inferred from affinity and uptake profiles [1] | Vmax (boron uptake, Michaelis–Menten) ([1]; CAL 27, 5 min incubation) [μg B/mg protein] | Km ([1]; CAL 27, 5 min incubation) [µM] | Vmax (boron uptake, Michaelis–Menten) ([1]; CAL 27, 30 min incubation) [μg B/mg protein] | Km ([1]; CAL 27, 30 min incubation) [µM] | pIC50 [2] | boron delivery capacity compared to the other delivery agents screened (BPA, BSH) ([1]; CAL 27, 10–400 μM, 5, 30 and 120 min) | Vmax (boron uptake, Michaelis–Menten) ([1]; CAL 27, 120 min incubation) [μg B/mg protein] | Km ([1]; CAL 27, 120 min incubation) [µM]
6-Deoxy-6-thio-(1,2-dicarba-closo-dodecaboran-1-yl)-D-glucopyranose [Compound 1] | seems to act as a GLUT1-antagonist | 1.34 | 1830 | 0.83 | 556 | 3.90 | – | – | –
6-Deoxy-6-thio-(1,2-dicarba-closo-dodecaboran-9-yl)-D-glucopyranose [Compound 3] | – | 0.03 | 110 | – | – | 3.01 | – | – | –
6-Deoxy-6-thio-(1,7-dicarba-closo-dodecaboran-1-yl)-D-glucopyranose [Compound 2] | enters the cells through the transporter at an acceptable rate | 6.60 | 1810 | 1.80 | 237 | 3.92 | fivefold higher delivery capacity | 2.19 | 208
OC[C@H]1OC(O)[C@H](O)[C@@H](O)[C@@H]1O (stereo partly drawn) [D-glucose, reference compound] | – | – | – | – | – | < 3.00 | – | – | –
